Assay results: patent publication US11078202B2, “β-lactamase inhibitor and use thereof” (priority 2018, dated 2021)
Structures can show the parent of a compound that is named as a salt.

Legend:
Format in all cases: cell-based
[1] = system: Klebsiella pneumoniae XNWB 0006; assay: MIC assay of test compounds combined with imipenem (4 μg/mL); settings: imipenem 4 μg/mL fixed
Outline: (§1)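 Antibiotic potentiation test: compound serially diluted, partner β-lactam at constant concentration, CAMHB medium, saline-standardised inoculum (OD600 0.1-0.15) diluted 300-fold. Incubated 16-20 h at 35±2 °C.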

[2] = system: Klebsiella pneumoniae XNWB 0001; assay: as above; settings: imipenem 4 μg/mL fixed
Outline: as §1

[3] = system: Pseudomonas aeruginosa XNWB 0008; assay: as above; settings: imipenem 4 μg/mL fixed
Outline: as §1

[4] = system: Klebsiella pneumoniae XNWB 0004; assay: as above; settings: imipenem 4 μg/mL fixed
Outline: as §1

[5] = system: Acinetobacter baumannii XNWB 0007; assay: as above; settings: imipenem 4 μg/mL fixed
Outline: as §1

[6] = system: Klebsiella pneumoniae XNWB 0002; assay: as above; settings: imipenem 4 μg/mL fixed
Outline: as §1

[7] = system: Klebsiella pneumoniae XNWB 0003; assay: as above; settings: imipenem 4 μg/mL fixed
Outline: as §1

[8] = system: Klebsiella pneumoniae XNWB 0005; assay: as above; settings: imipenem 4 μg/mL fixed
Outline: as §1

[9] = system: Klebsiella pneumoniae XNWB 0006; assay: MIC assay of test compounds combined with ceftazidime (8 μg/mL); settings: ceftazidime 8 μg/mL fixed
Outline: as §1

[10] = system: Klebsiella pneumoniae XNWB 0001; assay: as above; settings: ceftazidime 8 μg/mL fixed
Outline: as §1

[11] = system: Pseudomonas aeruginosa XNWB 0008; assay: as above; settings: ceftazidime 8 μg/mL fixed
Outline: as §1

[12] = system: Klebsiella pneumoniae XNWB 0004; assay: as above; settings: ceftazidime 8 μg/mL fixed
Outline: as §1

[13] = system: Acinetobacter baumannii XNWB 0007; assay: as above; settings: ceftazidime 8 μg/mL fixed
Outline: as §1

[14] = system: Klebsiella pneumoniae XNWB 0002; assay: as above; settings: ceftazidime 8 μg/mL fixed
Outline: as §1

[15] = system: Klebsiella pneumoniae XNWB 0003; assay: as above; settings: ceftazidime 8 μg/mL fixed
Outline: as §1

[16] = system: Klebsiella pneumoniae XNWB 0005; assay: as above; settings: ceftazidime 8 μg/mL fixed
Outline: as §1

SMILES	The minimum concentration of test compounds combined with imipenem (4 μg/mL) for bacteriostasis [1]	The minimum concentration of test compounds combined with imipenem (4 μg/mL) for bacteriostasis [2]	The minimum concentration of test compounds combined with imipenem (4 μg/mL) for bacteriostasis [3]	The minimum concentration of test compounds combined with imipenem (4 μg/mL) for bacteriostasis [4]	The minimum concentration of test compounds combined with imipenem (4 μg/mL) for bacteriostasis [5]	The minimum concentration of test compounds combined with imipenem (4 μg/mL) for bacteriostasis [6]	The minimum concentration of test compounds combined with imipenem (4 μg/mL) for bacteriostasis [7]	The minimum concentration of test compounds combined with imipenem (4 μg/mL) for bacteriostasis [8]	The minimum concentration of test compounds combined with ceftazidime (8 μg/mL) for bacteriostasis [9]	The minimum concentration of test compounds combined with ceftazidime (8 μg/mL) for bacteriostasis [10]	The minimum concentration of test compounds combined with ceftazidime (8 μg/mL) for bacteriostasis [11]	The minimum concentration of test compounds combined with ceftazidime (8 μg/mL) for bacteriostasis [12]	The minimum concentration of test compounds combined with ceftazidime (8 μg/mL) for bacteriostasis [13]	The minimum concentration of test compounds combined with ceftazidime (8 μg/mL) for bacteriostasis [14]	The minimum concentration of test compounds combined with ceftazidime (8 μg/mL) for bacteriostasis [15]	The minimum concentration of test compounds combined with ceftazidime (8 μg/mL) for bacteriostasis [16]
N[C@H]1C[C@@H](c2nnc([C@@H]3CC4(CC4)[C@@H]4CN3C(=O)N4OS(=O)(=O)O)o2)C1 [Example 15, (1R,4S)-4-(5-((1S,3R)-3-aminocyclobutyl)-1,3,4-oxadiazol-2-yl)-6-oxo-5,7-diazaspiro [bicyclo[3.2.1]octane-2,1′-cyclopropan]-7-yl sulfate]	A (A: <8 μg/mL)	A (A: <8 μg/mL)	B (B: 8-16 μg/mL)	A (A: <8 μg/mL)	C (C: 16-128 μg/mL)	A (A: <8 μg/mL)	A (A: <8 μg/mL)	A (A: <8 μg/mL)	A (A: <8 μg/mL)	A (A: <8 μg/mL)	C (C: 16-128 μg/mL)	B (B: 8-16 μg/mL)	C (C: 16-128 μg/mL)	A (A: <8 μg/mL)	A (A: <8 μg/mL)	A (A: <8 μg/mL)
O=C(NC1CNC1)[C@@H]1CC2(CC2)[C@@H]2CN1C(=O)N2OS(=O)(=O)O [Example 29, (1R,4S)-4-(azetidin-3-ylaminoformyl)-6-oxo-5,7-diazaspiro[bicyclo[3.2.1]octane-2,1′-cyclopropan]-7-yl sulfate]	A (A: <8 μg/mL)	A (A: <8 μg/mL)	A (A: <8 μg/mL)	A (A: <8 μg/mL)	C (C: 16-128 μg/mL)	A (A: <8 μg/mL)	A (A: <8 μg/mL)	A (A: <8 μg/mL)	A (A: <8 μg/mL)	A (A: <8 μg/mL)	B (B: 8-16 μg/mL)	A (A: <8 μg/mL)	C (C: 16-128 μg/mL)	A (A: <8 μg/mL)	A (A: <8 μg/mL)	A (A: <8 μg/mL)
O=C1N2C[C@H](N1OS(=O)(=O)O)C1(CC1)C[C@H]2c1cc(COC2CNC2)on1 [Example 50, (1R,4S)-4-(5-((azetidin-3-yloxy)methyl)isoxazol-3-yl)-6-oxo-5,7-diazaspiro[bicycle [3.2.1]octane-2,1′-cyclopropan]-7-yl sulfate]	A (A: <8 μg/mL)	A (A: <8 μg/mL)	A (A: <8 μg/mL)	A (A: <8 μg/mL)	C (C: 16-128 μg/mL)	A (A: <8 μg/mL)	A (A: <8 μg/mL)	A (A: <8 μg/mL)	A (A: <8 μg/mL)	A (A: <8 μg/mL)	B (B: 8-16 μg/mL)	B (B: 8-16 μg/mL)	C (C: 16-128 μg/mL)	A (A: <8 μg/mL)	A (A: <8 μg/mL)	A (A: <8 μg/mL)
CN(CCc1cc([C@@H]2CC3(CC3)[C@@H]3CN2C(=O)N3OS(=O)(=O)O)no1)C(=N)N [Example 37, (1R,4S)-4-(5-(2-(1-methylguanidino)ethyl)isoxazol-3-yl)-6-oxo-5,7-diazaspiro[bicycle [3.2.1]octane-2,1′-cyclopropan]-7-yl sulfate]	A (A: <8 μg/mL)	A (A: <8 μg/mL)	B (B: 8-16 μg/mL)	A (A: <8 μg/mL)	C (C: 16-128 μg/mL)	A (A: <8 μg/mL)	A (A: <8 μg/mL)	A (A: <8 μg/mL)	A (A: <8 μg/mL)	A (A: <8 μg/mL)	C (C: 16-128 μg/mL)	B (B: 8-16 μg/mL)	C (C: 16-128 μg/mL)	A (A: <8 μg/mL)	B (B: 8-16 μg/mL)	A (A: <8 μg/mL)
O=C1N2C[C@H](N1OS(=O)(=O)O)C1(CC1)C[C@H]2c1cc(CC2CNC2)on1 [Example 49, (1R,4S)-4-(5-(azetidin-3-ylmethyl)isoxazol-3-yl)-6-oxo-5,7-diazaspiro[bicycle[3.2.1]octane-2,1′-cyclopropan]-7-yl sulfate]	A (A: <8 μg/mL)	A (A: <8 μg/mL)	A (A: <8 μg/mL)	A (A: <8 μg/mL)	C (C: 16-128 μg/mL)	A (A: <8 μg/mL)	A (A: <8 μg/mL)	A (A: <8 μg/mL)	A (A: <8 μg/mL)	A (A: <8 μg/mL)	B (B: 8-16 μg/mL)	B (B: 8-16 μg/mL)	C (C: 16-128 μg/mL)	A (A: <8 μg/mL)	A (A: <8 μg/mL)	A (A: <8 μg/mL)
